For assay [1], the target named is T1, TGF-beta receptor type-1 (Homo sapiens) (UniProt P36897).
T1 sequence (whole entry): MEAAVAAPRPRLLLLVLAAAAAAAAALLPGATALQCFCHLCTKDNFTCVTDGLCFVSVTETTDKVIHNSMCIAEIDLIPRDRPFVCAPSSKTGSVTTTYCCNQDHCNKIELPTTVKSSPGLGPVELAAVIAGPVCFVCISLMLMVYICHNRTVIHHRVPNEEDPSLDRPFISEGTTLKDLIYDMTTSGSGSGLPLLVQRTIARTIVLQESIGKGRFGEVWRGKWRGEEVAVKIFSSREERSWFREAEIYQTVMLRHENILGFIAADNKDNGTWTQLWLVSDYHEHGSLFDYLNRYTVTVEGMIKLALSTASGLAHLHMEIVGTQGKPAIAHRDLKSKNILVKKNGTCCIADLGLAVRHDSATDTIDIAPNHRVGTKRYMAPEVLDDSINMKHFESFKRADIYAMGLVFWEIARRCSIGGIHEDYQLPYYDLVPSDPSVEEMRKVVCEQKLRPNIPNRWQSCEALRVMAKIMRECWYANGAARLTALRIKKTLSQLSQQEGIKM
Nature of the assay: Selectivity interaction (LanthaScreen Eu Kinase Binding Assay) EUB0001632a TGFBR1. The following applies: at 10 µM. (In TR-FRET formats the signal depends on donor and acceptor labels being close together.)

The target in assay [2] is T2, Serine/threonine-protein kinase Nek2 (Homo sapiens) (UniProt P51955).
T2 sequence (whole entry): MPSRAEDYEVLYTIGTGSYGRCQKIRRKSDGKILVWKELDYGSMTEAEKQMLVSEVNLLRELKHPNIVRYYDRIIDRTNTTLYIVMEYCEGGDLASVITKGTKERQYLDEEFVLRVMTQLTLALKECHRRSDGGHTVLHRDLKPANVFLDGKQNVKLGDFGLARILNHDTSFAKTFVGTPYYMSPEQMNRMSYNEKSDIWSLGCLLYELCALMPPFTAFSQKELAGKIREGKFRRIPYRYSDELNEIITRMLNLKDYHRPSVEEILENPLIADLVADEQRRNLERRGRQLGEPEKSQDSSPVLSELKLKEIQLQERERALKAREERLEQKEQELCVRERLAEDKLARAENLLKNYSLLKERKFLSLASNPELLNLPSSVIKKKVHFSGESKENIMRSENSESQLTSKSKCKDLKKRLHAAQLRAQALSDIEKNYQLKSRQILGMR
The note with it: at 10 µM.

Assay [3] concerns the target Protein kinase C delta type (Homo sapiens) (UniProt Q05655). Nature of the assay: Selectivity interaction (KinomeScan (DiscoverX)) EUB0000595a PRKCD. The following applies: at 10 µM.
Assay [4] has as its target Leucine-rich repeat serine/threonine-protein kinase 2 (Homo sapiens, UniProt Q5S007). The following applies: at 1 µM.
Assay [5] addresses Cyclin-dependent kinase 8 (Homo sapiens, UniProt P49336). Nature of the assay: Selectivity interaction (ActivX KiNativ screen (ex vivo kinase selectivity in human PBMCs)) EUB0001619a CDK8. It is filed as cell-based. The following applies: PBMC, at 1 µM.
Assay [6] addresses Ribosomal protein S6 kinase alpha-3 (Homo sapiens, UniProt P51812). The assay is described as follows: Selectivity interaction (KinomeScan (DiscoverX)) EUB0000666a RPS6KA3. The following applies: at 10 µM.
Assay [7] addresses Serine/threonine-protein kinase 32C (Homo sapiens) (UniProt Q86UX6). The assay is described as follows: Selectivity interaction (KinomeScan (DiscoverX)) EUB0000607a STK32C. The note with it: at 10 µM.
The target in assay [8] is T3, Serine/threonine-protein kinase DCLK2 (Homo sapiens) (UniProt Q8N568).
T3 sequence (whole entry): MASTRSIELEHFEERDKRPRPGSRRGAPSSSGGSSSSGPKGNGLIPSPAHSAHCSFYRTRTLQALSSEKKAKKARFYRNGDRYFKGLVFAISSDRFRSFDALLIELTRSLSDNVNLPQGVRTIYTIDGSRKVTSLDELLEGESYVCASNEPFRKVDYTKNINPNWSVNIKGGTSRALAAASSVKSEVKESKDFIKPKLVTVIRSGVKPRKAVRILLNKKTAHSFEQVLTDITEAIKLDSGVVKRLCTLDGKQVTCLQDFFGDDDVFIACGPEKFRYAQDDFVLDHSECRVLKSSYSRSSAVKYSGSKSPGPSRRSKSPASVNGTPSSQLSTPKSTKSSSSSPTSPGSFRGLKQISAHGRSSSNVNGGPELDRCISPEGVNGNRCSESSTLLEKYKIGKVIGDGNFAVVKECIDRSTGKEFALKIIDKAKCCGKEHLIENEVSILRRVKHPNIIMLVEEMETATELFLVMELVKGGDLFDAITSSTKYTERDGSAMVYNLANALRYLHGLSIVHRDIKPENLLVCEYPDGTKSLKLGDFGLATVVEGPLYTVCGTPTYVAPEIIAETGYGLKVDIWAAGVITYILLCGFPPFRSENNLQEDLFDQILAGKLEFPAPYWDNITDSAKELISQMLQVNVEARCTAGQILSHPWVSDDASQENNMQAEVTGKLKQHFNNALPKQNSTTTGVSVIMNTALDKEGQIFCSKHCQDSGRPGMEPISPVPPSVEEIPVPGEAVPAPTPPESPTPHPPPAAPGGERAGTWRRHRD
The assay is described as follows: Selectivity interaction (Upstate Kinase Profiler service (Millipore)) EUB0000056c DCLK2. The following applies: at 1 µM.

Assay [9] deals with T4, Rhodopsin kinase GRK1 (Homo sapiens) (UniProt Q15835).
T4 sequence (whole entry): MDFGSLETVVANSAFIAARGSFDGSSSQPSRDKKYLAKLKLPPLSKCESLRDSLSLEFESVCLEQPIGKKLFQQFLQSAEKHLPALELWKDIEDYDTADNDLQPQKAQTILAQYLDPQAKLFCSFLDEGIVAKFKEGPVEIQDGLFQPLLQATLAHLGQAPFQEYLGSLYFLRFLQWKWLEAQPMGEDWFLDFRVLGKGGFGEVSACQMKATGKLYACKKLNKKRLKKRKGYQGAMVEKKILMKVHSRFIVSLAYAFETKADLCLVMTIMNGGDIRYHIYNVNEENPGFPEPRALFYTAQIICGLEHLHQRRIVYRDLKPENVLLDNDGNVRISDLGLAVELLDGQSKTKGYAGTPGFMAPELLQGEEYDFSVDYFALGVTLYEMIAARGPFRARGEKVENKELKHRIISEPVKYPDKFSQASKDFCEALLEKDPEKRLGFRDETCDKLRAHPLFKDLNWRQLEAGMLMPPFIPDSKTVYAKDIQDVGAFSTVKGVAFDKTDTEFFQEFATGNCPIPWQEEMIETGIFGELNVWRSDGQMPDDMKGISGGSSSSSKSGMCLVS
The assay is described as follows: Selectivity interaction (KinomeScan (DiscoverX)) EUB0000618a GRK1. The note with it: at 10 µM.

Sequence of Serine/threonine-protein kinase 32C (Homo sapiens) (Q86UX6 whole entry): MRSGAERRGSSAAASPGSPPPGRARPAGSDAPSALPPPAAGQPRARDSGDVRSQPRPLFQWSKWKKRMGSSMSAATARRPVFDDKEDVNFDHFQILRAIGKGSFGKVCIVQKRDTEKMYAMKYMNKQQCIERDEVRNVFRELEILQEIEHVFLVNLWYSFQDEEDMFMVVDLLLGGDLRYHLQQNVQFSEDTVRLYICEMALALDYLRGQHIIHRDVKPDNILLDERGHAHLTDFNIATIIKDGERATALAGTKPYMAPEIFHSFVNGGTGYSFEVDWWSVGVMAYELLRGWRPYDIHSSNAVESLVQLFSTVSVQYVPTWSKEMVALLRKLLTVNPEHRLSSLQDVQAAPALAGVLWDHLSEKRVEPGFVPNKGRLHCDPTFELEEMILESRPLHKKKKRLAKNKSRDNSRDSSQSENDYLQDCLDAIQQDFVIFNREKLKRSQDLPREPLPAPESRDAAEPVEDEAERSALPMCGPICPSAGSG
Sequence of Cyclin-dependent kinase 8 (P49336 whole entry): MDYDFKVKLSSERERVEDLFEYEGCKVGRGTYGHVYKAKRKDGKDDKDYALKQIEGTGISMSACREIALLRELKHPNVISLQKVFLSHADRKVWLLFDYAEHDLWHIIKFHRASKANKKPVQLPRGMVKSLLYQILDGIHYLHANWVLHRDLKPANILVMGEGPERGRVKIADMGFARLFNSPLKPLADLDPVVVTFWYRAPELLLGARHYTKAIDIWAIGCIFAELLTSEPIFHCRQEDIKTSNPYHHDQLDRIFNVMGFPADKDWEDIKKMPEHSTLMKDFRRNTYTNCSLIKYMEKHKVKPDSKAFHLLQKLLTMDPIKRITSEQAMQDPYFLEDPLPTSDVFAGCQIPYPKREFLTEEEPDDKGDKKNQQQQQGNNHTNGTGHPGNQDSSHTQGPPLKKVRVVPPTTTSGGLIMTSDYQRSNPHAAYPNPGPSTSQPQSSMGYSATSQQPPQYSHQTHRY
Sequence of Protein kinase C delta type (Homo sapiens) (Q05655 whole entry, looked up): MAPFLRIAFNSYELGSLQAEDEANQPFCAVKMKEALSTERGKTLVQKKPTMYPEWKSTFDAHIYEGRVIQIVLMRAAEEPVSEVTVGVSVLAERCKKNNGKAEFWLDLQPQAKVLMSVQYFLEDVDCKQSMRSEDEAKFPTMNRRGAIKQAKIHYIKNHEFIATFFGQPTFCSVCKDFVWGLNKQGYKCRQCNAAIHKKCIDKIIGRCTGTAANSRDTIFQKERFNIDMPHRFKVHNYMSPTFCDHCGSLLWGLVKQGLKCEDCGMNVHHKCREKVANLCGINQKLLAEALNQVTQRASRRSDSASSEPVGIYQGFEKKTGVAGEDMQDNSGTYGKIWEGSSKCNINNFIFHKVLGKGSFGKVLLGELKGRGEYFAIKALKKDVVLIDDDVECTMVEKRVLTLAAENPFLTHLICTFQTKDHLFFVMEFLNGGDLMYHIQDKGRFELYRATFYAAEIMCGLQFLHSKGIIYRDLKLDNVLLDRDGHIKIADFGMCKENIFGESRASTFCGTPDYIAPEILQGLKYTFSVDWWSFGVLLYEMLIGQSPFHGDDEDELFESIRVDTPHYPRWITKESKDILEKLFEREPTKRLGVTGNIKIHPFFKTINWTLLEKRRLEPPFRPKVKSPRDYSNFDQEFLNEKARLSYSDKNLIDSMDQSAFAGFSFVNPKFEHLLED
Sequence of Leucine-rich repeat serine/threonine-protein kinase 2 (Q5S007 whole entry): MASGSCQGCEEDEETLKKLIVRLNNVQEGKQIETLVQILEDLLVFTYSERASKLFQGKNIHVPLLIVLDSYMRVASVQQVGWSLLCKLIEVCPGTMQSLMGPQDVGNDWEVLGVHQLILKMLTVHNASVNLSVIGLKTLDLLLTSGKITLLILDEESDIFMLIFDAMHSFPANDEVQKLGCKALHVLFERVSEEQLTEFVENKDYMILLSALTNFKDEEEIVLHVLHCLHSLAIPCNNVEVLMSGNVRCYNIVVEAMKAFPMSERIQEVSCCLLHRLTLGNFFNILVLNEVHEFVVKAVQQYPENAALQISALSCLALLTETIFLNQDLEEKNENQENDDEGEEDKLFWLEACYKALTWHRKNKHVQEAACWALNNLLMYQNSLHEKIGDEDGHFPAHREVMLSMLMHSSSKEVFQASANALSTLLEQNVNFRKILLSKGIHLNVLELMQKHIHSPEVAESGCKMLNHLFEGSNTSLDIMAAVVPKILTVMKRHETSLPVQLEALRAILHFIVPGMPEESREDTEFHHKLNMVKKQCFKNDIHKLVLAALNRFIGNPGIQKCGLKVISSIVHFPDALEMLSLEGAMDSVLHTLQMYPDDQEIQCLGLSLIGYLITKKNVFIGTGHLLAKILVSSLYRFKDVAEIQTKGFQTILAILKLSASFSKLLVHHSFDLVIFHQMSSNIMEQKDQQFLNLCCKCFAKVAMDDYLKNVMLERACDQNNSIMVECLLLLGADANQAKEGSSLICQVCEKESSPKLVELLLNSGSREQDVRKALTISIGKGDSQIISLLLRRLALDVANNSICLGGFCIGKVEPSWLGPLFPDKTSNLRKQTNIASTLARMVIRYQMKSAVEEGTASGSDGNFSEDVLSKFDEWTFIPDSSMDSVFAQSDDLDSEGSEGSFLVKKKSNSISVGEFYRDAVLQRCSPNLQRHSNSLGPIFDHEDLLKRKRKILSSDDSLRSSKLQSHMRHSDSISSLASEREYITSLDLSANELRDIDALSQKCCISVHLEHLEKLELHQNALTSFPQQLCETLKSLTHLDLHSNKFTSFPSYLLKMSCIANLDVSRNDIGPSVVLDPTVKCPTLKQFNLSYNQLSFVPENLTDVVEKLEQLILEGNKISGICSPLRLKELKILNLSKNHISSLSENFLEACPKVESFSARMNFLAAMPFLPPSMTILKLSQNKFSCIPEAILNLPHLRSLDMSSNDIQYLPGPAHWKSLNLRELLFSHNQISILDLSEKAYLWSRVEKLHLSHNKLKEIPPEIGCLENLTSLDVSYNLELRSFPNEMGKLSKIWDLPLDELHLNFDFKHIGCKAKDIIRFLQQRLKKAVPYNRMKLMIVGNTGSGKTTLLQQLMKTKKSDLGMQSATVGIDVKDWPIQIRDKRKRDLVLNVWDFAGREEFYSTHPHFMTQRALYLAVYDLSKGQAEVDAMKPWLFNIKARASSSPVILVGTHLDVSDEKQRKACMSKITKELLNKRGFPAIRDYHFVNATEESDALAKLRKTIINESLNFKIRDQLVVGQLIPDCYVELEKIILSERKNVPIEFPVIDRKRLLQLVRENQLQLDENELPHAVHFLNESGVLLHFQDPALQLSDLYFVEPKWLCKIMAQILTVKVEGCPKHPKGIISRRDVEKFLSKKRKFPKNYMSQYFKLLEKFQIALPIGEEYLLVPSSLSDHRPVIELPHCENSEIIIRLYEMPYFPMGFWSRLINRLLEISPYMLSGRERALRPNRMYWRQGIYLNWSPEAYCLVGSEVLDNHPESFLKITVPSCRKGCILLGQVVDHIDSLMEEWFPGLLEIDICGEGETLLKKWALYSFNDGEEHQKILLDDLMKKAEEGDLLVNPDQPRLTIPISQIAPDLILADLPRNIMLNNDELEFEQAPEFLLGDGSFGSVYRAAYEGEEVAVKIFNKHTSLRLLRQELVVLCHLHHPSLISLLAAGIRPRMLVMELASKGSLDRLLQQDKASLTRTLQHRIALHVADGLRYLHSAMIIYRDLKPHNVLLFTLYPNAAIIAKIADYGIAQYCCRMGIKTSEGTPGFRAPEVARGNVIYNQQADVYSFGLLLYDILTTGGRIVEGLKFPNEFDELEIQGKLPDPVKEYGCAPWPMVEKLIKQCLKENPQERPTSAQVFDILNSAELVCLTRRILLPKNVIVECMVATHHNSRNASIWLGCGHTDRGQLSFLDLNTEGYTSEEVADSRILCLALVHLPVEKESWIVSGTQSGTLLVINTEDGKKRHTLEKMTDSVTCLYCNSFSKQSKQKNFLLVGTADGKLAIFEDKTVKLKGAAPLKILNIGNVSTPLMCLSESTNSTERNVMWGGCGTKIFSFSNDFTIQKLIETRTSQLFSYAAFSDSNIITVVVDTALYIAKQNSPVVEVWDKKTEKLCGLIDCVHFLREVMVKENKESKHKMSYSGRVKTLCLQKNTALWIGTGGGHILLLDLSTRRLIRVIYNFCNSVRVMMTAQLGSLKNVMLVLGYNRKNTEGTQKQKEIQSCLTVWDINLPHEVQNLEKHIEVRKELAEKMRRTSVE
Sequence of Ribosomal protein S6 kinase alpha-3 (P51812 whole entry): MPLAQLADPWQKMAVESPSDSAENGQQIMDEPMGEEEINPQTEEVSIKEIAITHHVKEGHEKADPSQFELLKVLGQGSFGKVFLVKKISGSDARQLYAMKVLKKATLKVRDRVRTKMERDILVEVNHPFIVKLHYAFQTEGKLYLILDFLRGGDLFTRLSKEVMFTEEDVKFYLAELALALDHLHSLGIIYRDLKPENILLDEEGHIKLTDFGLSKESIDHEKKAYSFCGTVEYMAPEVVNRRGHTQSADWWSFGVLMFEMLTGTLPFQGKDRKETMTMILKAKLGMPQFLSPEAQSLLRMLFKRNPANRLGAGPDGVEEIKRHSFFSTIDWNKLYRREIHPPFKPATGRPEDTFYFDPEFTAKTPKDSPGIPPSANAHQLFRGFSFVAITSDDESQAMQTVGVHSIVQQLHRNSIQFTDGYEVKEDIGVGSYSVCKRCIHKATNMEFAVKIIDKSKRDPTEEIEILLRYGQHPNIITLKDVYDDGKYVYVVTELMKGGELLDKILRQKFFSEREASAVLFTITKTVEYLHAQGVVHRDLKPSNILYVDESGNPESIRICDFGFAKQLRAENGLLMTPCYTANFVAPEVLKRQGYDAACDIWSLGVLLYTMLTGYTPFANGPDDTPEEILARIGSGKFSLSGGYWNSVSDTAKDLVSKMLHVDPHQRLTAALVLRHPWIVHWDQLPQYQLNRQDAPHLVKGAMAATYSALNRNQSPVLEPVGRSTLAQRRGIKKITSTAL

For `Cn1cc(-n2cnc3c(NCc4nc5cc(Cl)c(Cl)cc5[nH]4)nc(N4CCOCC4)nc32)cn1`, the % of inhibition in [1] amounted to 0.691%.

Consider `COCC(=O)NC/C=C/c1ccc2ncnc(Nc3ccc(Oc4ccc(C)nc4)c(C)c3)c2c1` [CP-724714], for which the results for the % of control in assay [2] and in [3] were 100% and 87%, respectively.

Turning to `N#Cc1cccc(-c2c[nH]c3ncnc(N4CCOCC4)c23)c1`, the % of control in [4] was 43%. Further, the % of inhibition in assay [5] came to 36%.

Regarding `O=C(NOC[C@H](O)CO)c1ccc(F)c(F)c1Nc1ccc(I)cc1F`, the % of control in assay [6] stood at 100%.

In [7], `CNC(=O)Nc1ccc(-c2nc(N3CC4CCC(C3)O4)c3cnn(C4CCC5(CC4)OCCO5)c3n2)cc1` yielded a % of control of 90%.

As for `Cc1ccc(-c2ccc3c(ccc4sc5c(c43)NC[C@@H](C)NC5=O)n2)cn1`, the % of inhibition in [8] was -1%.

In [9], `O[C@H]1CC[C@H](Nc2ncc3nc(Nc4c(F)cc(F)cc4F)n([C@H]4CCOC4)c3n2)CC1` gave a % of control of 78%.

For the origin of these results see ChEMBL document CHEMBL5465560, “Selectivity Literature for EUbOPEN Chemogenomic Library” (2024).
